Data on 44 molecules can be found in ChEMBL document CHEMBL1129907, “The SAR of UK-78,282: A novel blocker of human T cell Kv1.3 potassium channels” (Bioorg Med Chem Lett, 1997).

Molecules are shown by their SMILES.

For experiment [1], the system named is T-cell line. Description: In vitro inhibitory potency against human T-cells Rb efflux. The experiment is classed as functional, cell-based.
The target in experiment [2] is Potassium voltage-gated channel subfamily A member 3 (Homo sapiens, UniProt P22001). The experiment is described as follows: In vitro inhibition of human T-cells voltage-gated potassium channel subunit Kv1.3. Type of experiment: cell-based, T-cell.
In experiment [3] the test system is T-cell line. Description: In vitro inhibition of Rb efflux in human T-cells; 1-10. Type of experiment: functional, cell-based.

Potassium voltage-gated channel subfamily A member 3, sequence (P22001 whole entry): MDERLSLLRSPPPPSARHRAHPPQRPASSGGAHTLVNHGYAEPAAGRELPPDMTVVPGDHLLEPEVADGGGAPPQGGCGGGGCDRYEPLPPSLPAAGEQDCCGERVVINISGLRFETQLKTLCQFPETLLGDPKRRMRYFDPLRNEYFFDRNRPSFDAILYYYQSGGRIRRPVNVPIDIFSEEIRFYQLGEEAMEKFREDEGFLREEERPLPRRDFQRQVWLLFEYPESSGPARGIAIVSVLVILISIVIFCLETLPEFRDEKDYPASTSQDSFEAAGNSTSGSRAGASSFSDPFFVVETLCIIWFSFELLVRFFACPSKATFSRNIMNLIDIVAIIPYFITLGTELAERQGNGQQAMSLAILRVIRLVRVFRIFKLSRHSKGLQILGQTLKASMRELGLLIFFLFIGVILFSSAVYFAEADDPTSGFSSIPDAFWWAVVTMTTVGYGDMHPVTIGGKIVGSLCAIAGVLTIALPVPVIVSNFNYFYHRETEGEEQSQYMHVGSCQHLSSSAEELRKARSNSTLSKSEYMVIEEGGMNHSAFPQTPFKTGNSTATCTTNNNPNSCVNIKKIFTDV

A word on the IC50: it is the concentration that gives 50% inhibition. As to `COc1ccc(CCC[n+]2ccc(COC(c3ccccc3)c3ccccc3)cc2)cc1`, the IC50 in the experiment on T-cell line [1] is greater than 20000 nM.

As to `COc1ccc(CCCN2CCC(CNC(c3ccccc3)c3ccccc3)CC2)cc1`, the midpoint of inhibition in the experiment on T-cell line [1], the IC50, lay at 2800 nM.

As for `COc1ccc(CCCN2CCC(COC(c3ccc(Br)cc3)c3ccc(Br)cc3)CC2)cc1`, the 50% inhibitory concentration (IC50) in the experiment on T-cell line [1] came to 3200 nM.

In the experiment with T-cell line [1], `COc1ccc(CCCN2C3CCC2CC(COC(c2ccccc2)c2ccccc2)C3)cc1` (stereo not given) came in with an IC50 of 400 nM.

Molecule `CCN1CCC(COC(c2ccccc2)c2ccccc2)CC1` returned an IC50 with T-cell line [1] greater than 20000 nM.

As for `Clc1ccc(CCCN2CCC(COC(c3ccccc3)c3ccccc3)CC2)cc1Cl`, in the experiment with T-cell line [1], the IC50 amounted to 2200 nM.

In the case of `c1ccc(C(OCC2CCN(CC3CCc4ccccc4C3)CC2)c2ccccc2)cc1` (stereo not given), inhibition in the experiment on T-cell line [1] was half-maximal at 5600 nM (IC50).

`CCCCCN1CCC(COC(c2ccccc2)c2ccccc2)CC1` gave a half-maximal inhibitory concentration (IC50) in the experiment with T-cell line [1] of 10800 nM.

Molecule `COc1cccc(CCCN2CCC(COC(c3ccccc3)c3ccccc3)CC2)c1` displayed a concentration for half-maximal inhibition (IC50) in the experiment on T-cell line [1] of 1500 nM.

As for `COc1ccc(CCCN2CCC(CCC(c3ccccc3)c3ccccc3)CC2)cc1`, the IC50 in the experiment on T-cell line [1] was found to be 200 nM.

The molecule `COc1ccc(CCCN2CCC(C(O)CC(c3ccccc3)c3ccccc3)CC2)cc1` (stereo not given) registered an IC50 in the experiment with T-cell line [1] of 1500 nM.

`COc1ccc(CCCN2CCC(COCc3ccc(Cl)c(Cl)c3)CC2)cc1` had a half-inhibitory concentration (IC50) in the experiment with T-cell line [1] of 200 nM.

In turn, `COc1ccc(CC2(CN3CCC(COC(c4ccccc4)c4ccccc4)CC3)CCCCC2)cc1` returned a half-inhibitory concentration (IC50) in the experiment on T-cell line [1] of 3400 nM.

On to `C(#Cc1ccccc1)CN1CCC(COC(c2ccccc2)c2ccccc2)CC1`, for which the IC50 in the experiment with T-cell line [1] was greater than 20000 nM.

As to `CCCN1CCC(COC(c2ccccc2)c2ccccc2)CC1`, the 50% inhibitory concentration (IC50) in the experiment on T-cell line [1] was determined as 17800 nM.

Molecule `COc1ccc(CCCN2CCC(=CCC(c3ccccc3)c3ccccc3)CC2)cc1` showed an IC50 in the experiment on T-cell line [1] of 400 nM.

For `COc1ccc(CCCN2CCC(COCc3ccccc3)CC2)cc1`, in the experiment with T-cell line [1], the 50% inhibitory concentration (IC50) is 2100 nM.

In turn, `Clc1ccccc1CCCN1CCC(COC(c2ccccc2)c2ccccc2)CC1` yielded an IC50 in the experiment on T-cell line [1] of 800 nM.

In the case of `COc1ccc(CCCN2CCC(COCc3ccccn3)CC2)cc1`, in the experiment with T-cell line [1], the IC50 worked out at 5900 nM.

Molecule `c1ccc(CCCN2CCC(COC(c3ccccc3)c3ccccc3)CC2)cc1` gave a concentration for half-maximal inhibition (IC50) with T-cell line [1] of 700 nM.

Consider `COc1ccc(CCN2CCC(COC(c3ccccc3)c3ccccc3)CC2)cc1`, for which half-maximal inhibition in the experiment with T-cell line [1] (IC50) was put at 2900 nM.

As for `COc1ccc(CCCN2CCC(COC(c3ccc(Cl)cc3)c3ccc(Cl)cc3)CC2)cc1`, the half-maximal inhibitory concentration (IC50) in the experiment with T-cell line [1] was 1100 nM.

For `CCCCCCCCCN1CCC(COC(c2ccccc2)c2ccccc2)CC1`, the IC50 with T-cell line [1] was found to be 700 nM.

Turning to `COc1ccc(CCCN2CCN(CCC(c3ccccc3)c3ccccc3)CC2)cc1`, in the experiment with T-cell line [1], the half-inhibitory concentration (IC50) stood at 2700 nM.

Regarding `CN1CCC(COC(c2ccccc2)c2ccccc2)CC1`, the IC50 with T-cell line [1] is greater than 20000 nM.

In the experiment on T-cell line [1], `CCCCCCCCN1CCC(COC(c2ccccc2)c2ccccc2)CC1` registered a half-maximal inhibitory concentration (IC50) of 700 nM.

Consider `COc1ccc(/C=C/CN2CCC(COC(c3ccccc3)c3ccccc3)CC2)cc1`, for which the midpoint of inhibition with T-cell line [1], the IC50, lay at 4300 nM.

The molecule `COc1ccc(CCCN2CCC(CO)CC2)cc1` had an IC50 with T-cell line [1] greater than 20000 nM.

On to `CCCCCCCCCCN1CCC(COC(c2ccccc2)c2ccccc2)CC1`, for which the midpoint of inhibition with T-cell line [1], the IC50, lay at 2600 nM.

In turn, `COc1ccc(CCCN2CCC(COCc3ccc(Cl)cc3)CC2)cc1` yielded a half-inhibitory concentration (IC50) in the experiment on T-cell line [1] of 500 nM.

As for `Clc1ccc(CCCN2CCC(COC(c3ccccc3)c3ccccc3)CC2)cc1`, the IC50 in the experiment with T-cell line [1] was found to be 500 nM.

With `COc1ccccc1CCCN1CCC(COC(c2ccccc2)c2ccccc2)CC1`, half-maximal inhibition in the experiment on T-cell line [1] (IC50) required 2400 nM.

Turning to `COc1ccc(CCCN2CCC(COC(c3ccccc3)c3ccccc3)CC2)cc1`, the IC50 was determined as 400 nM in the experiment on T-cell line [1] and 200 nM in experiment [2].

Molecule `CCCCN1CCC(COC(c2ccccc2)c2ccccc2)CC1` returned an IC50 with T-cell line [1] of 14000 nM.

As to `Cc1ccc(CCCN2CCC(COC(c3ccccc3)c3ccccc3)CC2)cc1`, in the experiment on T-cell line [1], the midpoint of inhibition, the IC50, lay at 200 nM.

Molecule `COc1ccc(CCCN2CCC(COC(c3ccccc3)c3ccc(Cl)cc3)CC2)cc1` (stereo not given) registered a 50% inhibitory concentration (IC50) in the experiment with T-cell line [1] of 200 nM.

Turning to `COc1ccc(CCCN2CCC(COCC3CCCCC3)CC2)cc1`, in the experiment on T-cell line [1], the half-maximal inhibitory concentration (IC50) amounted to 3000 nM.

With `CCCCCCCN1CCC(COC(c2ccccc2)c2ccccc2)CC1`, the midpoint of inhibition in the experiment with T-cell line [1], the IC50, lay at 500 nM.

Molecule `CCCCCCN1CCC(COC(c2ccccc2)c2ccccc2)CC1` gave a half-inhibitory concentration (IC50) with T-cell line [1] of 5500 nM.

In turn, `CCCCCCC[N+](CC)(CC)CCCCc1ccc(Cl)cc1` [CLOFILIUM] yielded a 50% inhibitory concentration (IC50) in the experiment with T-cell line [3] of 1000 nM.

For `CN(CCOc1ccc(NS(C)(=O)=O)cc1)CCc1ccc(NS(C)(=O)=O)cc1` [DOFETILIDE], the IC50 in the experiment with T-cell line [3] came to 1000 nM.

The molecule `COc1ccc(Cl)cc1C(=O)NCCc1ccc(S(=O)(=O)NC(=O)NC2CCCCC2)cc1` [GLYBURIDE] registered a 50% inhibitory concentration (IC50) in the experiment with T-cell line [3] of 1000 nM.

On to `CC(C)NCC(O)c1ccc(NS(C)(=O)=O)cc1` (stereo not given) [SOTALOL], for which, in the experiment on T-cell line [3], inhibition was half-maximal at 1000 nM (IC50).

Take `CC[N+](CC)(CC)CC` [TETRYLAMMONIUM]: in the experiment with T-cell line [3], the IC50 amounted to 1000 nM.
